Results published in article PMC7156724, “Potent BRD4 inhibitor suppresses cancer cell-macrophage interaction” (Nature Communications, 2020).

Legend:
[1] = Metabolic stability assay, monkey liver microsomes; settings: for Remaining in Monkey liver microsomes (Sup Fig.6d): in % (unit assumed)
Procedure: 7. Metabolic stability assay. The metabolic profile of NHWD-870 was determined using mouse, rat, dog, monkey, and human liver microsomes using the protocols […]
No. Compound ID Exat Mass Stock Conc.
1) 100 mM potassium phosphate buffer, PH7.4; 2) 10mM MgCI2
1) Intermediate solution: Dilute 5 μL of compound or control from stock solution (10 mM) with 45 uL DMSO,then mixed with 450 μL 1:1 Methanol/Water (Conc.: 10 0 […]
2) Working solution: Dilute 50 μL from intermediate solution with 450 μL 100 mM potassium phosphate buffer (Conc.: 10 μM, 4.5%MeOH)
(3) NADPH regenerating system (final Isocitric dehydrogenase conc.= 1 unit/mL at […]
1) β-Nicotinamide adenine dinucleotide phosphate, Vendor: sigma Cat. No. N0505
2) Isocitric acid, Vendor: Sigma Cat. No. I1252
3) Isocitric dehydrogenase, Vendor: sigma Cat. No. I2002
(4) Liver microsome solution preparation (final concentration o f 0.5 mg protein/mL) […]
Cold ACN including 100 ng/mL Tolbutamide and 100 ng/mL Labetalol as internal […]
1) Add 10 μL compound or control working solution/well to all plates (T0, T5, T10, T20, T30, T60, NCF60) except matrix blank.
2) Dispense 680 μL/well microsome solution to 96-well plate as reserv oir according to […]
plate map. Then add 80 μL/well to every plate by Apricot, incubate the mixture of microsome solution and compound at 37℃ for about 10 min.
3) Add 10 μL 100 mM potassium phosphate buffer/well to NCF60, incubate at 37℃, […]
4) After pre-warming, dispense 90 μL/well NADPH regenerating system to 96-well plate as reservoir according to the plate map. Then add 10 μL/well to every plate by Apricot to start reaction.
5) Incubate at 37℃, start timer 2.
6) Add 300 (μL/well) stop solution (cold in 4℃, including 100 ng/mL Tolbutamide and 100 ng/mL Labetalol) to terminate the reaction.
7) The sampling plates are shaked for approx 10 min.
8) Samples are centrifuged at 4000 rpm for 20 min under 4℃.
9) While centrifuging, load 8×new 96-well plate with 300 μL HPLC water, then transfer 100 μL supernatant, mixed for LC/MS/MS.
Use equation of first order kinetics to calculate t1/2 and Clin t(mic): […]
(§1) Equation of first order kinetics: […]

[2] = Equilibrium dialysis assay, CD-1 mouse plasma
Procedure: The concentration was calculated using the peak area ratio of analyte and internal […]
The results were calculated by the following equations:
% Unbound = 100 *FC / TC, % Bound = 100 * (1-FC / TC)
% Recovery = 100 * (FC + TC) / T0
TC = Total compound concentration as determined by the calculated concentration on the retentate side of the membrane
FC = Free compound concentration as determined by the calculated concentration on the dialysate side of the membrane […]
as §1
8. Equilibrium dialysis assay. Binding with plasma protein and recovery rate of NHWD-870 were performed with human, CD-1 mouse and SD rat plasma as […]
described 2. […] The concentration was […]
calculated using the peak area ratio of analyte and internal standard. The results were calculated by the following equations: % Unbound = 100 *FC / TC, % Bound = 100 * (1-FC / TC); % Recovery = 100 * (FC + TC) / T0; TC = Total compound concentration as determined by the calculated concentration on the retentate side of the membrane; FC = Free compound concentration as determined by the (1 picture or pasted object on this page, not shown here) […]
calculated concentration on the dialysate side of the membrane; T0 = To t a l compound concentration as determined before dialysis. […]
10. hERG channel assay. […]
HEK293 cell line stably

[3] = monkey, liver microsomes, pH 7.4

SMILES: Cc1nnn(C)c1-c1cnc2c3c4cnn(C)c4ccc3n([C@H](c3ccccc3)C3CCOCC3)c2c1 [NHWD-870]
- Remaining (T=60min) ([1]; monkey liver microsomes): 25.7%
- Remaining (*NCF=60min) ([1]; monkey liver microsomes, no cofactor): 112.0%
- CLint scaled at 1 µM [1, 3]: 62.4 mL/min/kg
- half-life at 1 µM [1, 3]: 30 min
- microsomal CLint at 1 µM ([1]; monkey, microsomes, pH 7.4): 46.2 µL/min/mg
- Remaining in Monkey liver microsomes (Sup Fig.6d) ([1]; time 0): 100
- Remaining in Monkey liver microsomes (Sup Fig.6d) ([1]; time 5): 73.787
- Remaining in Monkey liver microsomes (Sup Fig.6d) ([1]; time 10): 48.901
- Remaining in Monkey liver microsomes (Sup Fig.6d) ([1]; time 20): 36.72
- Remaining in Monkey liver microsomes (Sup Fig.6d) ([1]; time 30): 26.708
- Remaining in Monkey liver microsomes (Sup Fig.6d) ([1]; time 60): 12.364
- fraction unbound ([2]; CD-1, mouse, plasma): 0.026
- recovery ([2]; CD-1, mouse, plasma): 95.2%
- % Bound ([2]; CD-1 mouse plasma, equilibrium dialysis): 97.4%
